Experimental data: US20060008800A1, “Unc-13 in the modulation of neurotransmission and secretion events” (priority 2002, published 2006)

Experiments:
[1] = tested on: NMDA receptors; conditions: cited from earlier work
[2] = tested on: NMDA receptors; experiment: Use dependent block of synaptic NMDA EPSCs by MK-801; format: cell-based, mouse; conditions: 5 μM; 120 evoked NMDA EPSCs; Munc13-1 deficient neurons
[3] = tested on: hippocampal neurons; experiment: Effect of PDBU on mEPSC frequency in autaptic neurons; format: cell-based, mouse; conditions: 1 μM PDBU
Protocol: (§1) Microisland culture preparation was performed according to Bekkers and Stevens (1991). The extracellular medium contained (mM): NaCl, 167; KCl, 2.4; HEPES, 10; glucose, 10; CaCl2, 4; MgCl2, 4 (340 mOsm, pH 7.3). Solutions were applied and recordings were performed as described in Rosenmund (1995). To examine synaptically activated currents, experiments were performed using recurrent synapses (autapses) or only single autaptic neuroeses on microisland cultures at room temperature (=24° C.). Pipette solutions included (mM): KCl, 120, or K-Gluconate, 125; HEPES, 10; EGTA, 1; MgCl2, 4.6; Na4ATP, 4; Creatinephosphate, 15; creatinephosphokinase 50 U/ml (320 mOsm, pH 7.3). Wild type and Munc13-1 deficient glutamatergic hippocampal neurons were used to study the characteristics of Munc13-1 and Munc13-1 independent synapses. […] In this autaptic culture system, where isolated nerve cells make multiple synaptic contacts, so called autapses, with their own dendritic trees, spontaneous transmitter release, release of the readily releasable vesicle pool induced by hypertonic solutions, and action potential evoked release arise from the same synapse population and can be measured readily with patch clamp techniques. […]
Routinely, cells from Munc13-1^H567K/Munc13-1^H567K mutants were analyzed 12-20 day after plating and compared to wild type control cells obtained from littermates. […]

[4] = tested on: hippocampal neurons; experiment: β-phorbol ester induced potentiation of evoked synaptic currents in autaptic neuron cultures (patch clamp); format: cell-based, mouse; conditions: for β-phorbol ester induced EPSC potentiation (synaptic potentiation): PDBU 100-1000 nM; for EPSC potentiation: PDBU
Protocol: Microisland culture preparation was performed according to Bekkers and Stevens (1991). The extracellular medium contained (mM): NaCl, 167; KCl, 2.4; HEPES, 10; glucose, 10; CaCl2, 4; MgCl2, 4 (340 mOsm, pH 7.3). Solutions were applied and recordings were performed as described in Rosenmund (1995). To examine synaptically activated currents, experiments were performed using recurrent synapses (autapses) or only single autaptic neuroeses on microisland cultures at room temperature (=24° C.). Pipette solutions included (mM): KCl, 120, or K-Gluconate, 125; HEPES, 10; EGTA, 1; MgCl2, 4.6; Na4ATP, 4; Creatinephosphate, 15; creatinephosphokinase 50 U/ml (320 mOsm, pH 7.3). Wild type and Munc13-1 deficient glutamatergic hippocampal neurons were used to study the characteristics of Munc13-1 and Munc13-1 independent synapses. For these purposes, individual neurons grown on microisland beds of glial cells (Bekkers, 1991) were employed. In this autaptic culture system, where isolated nerve cells make multiple synaptic contacts, so called autapses, with their own dendritic trees, spontaneous transmitter release, release of the readily releasable vesicle pool induced by hypertonic solutions, and action potential evoked release arise from the same synapse population and can be measured readily with patch clamp techniques. Autaptic responses were obtained after brief (1-2 ms) somatic depolarization. This induces an unclamped action potential that is followed by a postsynaptic response with a delay of 2-4 ms. Excitatory, glutamatergic and inhibitory, GABAergic synaptic currents were distinguished by their characteristic pharmacological and kinetic properties. Excitatory glutamatergic cells were mainly characterized because the differential equipment of presynaptic terminals formed by the same axon with Munc13 priming factors is not apparent in GABAergic neurons.
Design of and infection with Semliki Forest Virus was done according to published procedures (Betz, 2001; Ashery, 2000). Cells were measured 22-26 h after infection.
Routinely, cells from Munc13-1^H567K/Munc13-1^H567K mutants were analyzed 12-20 day after plating and compared to wild type control cells obtained from littermates. In some experiments we employed Munc13-1/Munc13-2 double deficient neurons as model cells to study the characteristics of the Munc13-1^H567K variant in comparison to wild type Munc13-1 following overexpression using the Semliki-Forest-Virus system. In contrast to Munc13-1 deficient glutamatergic hippocampal neurons, which still show measurable glutamate release (10% of wild type levels; Augustin, 1999b), double homozygous Munc13-1/Munc13-2 deletion mutant neurons are characterized by a complete lack of spontaneous and evoked transmitter release but can be rescued by reintroduction of Munc13 proteins. This rescue approach was persued in Munc13-1/Munc13-2 double mutant neurons instead of breeding the Munc13-1^H567K/Munc 3-1^H567K mutation into the Munc13-2 deletion mutant background because it was much faster and allowed the direct comparison of additional mutant (Betz, 2001) and wild type Munc13-1 variants in the same cultures. Autaptic responses were obtained after brief (1-2 ms) somatic depolarization. This induces an unclamped action potential that is followed by a postsynaptic response with a delay of 2-4 ms. Excitatory, glutamatergic synaptic currents were identified by their characteristic pharmacological and kinetic properties.

[5] = tested on: Munc13-1 deficient hippocampal neurons; experiment: EPSC augmentation following high frequency action potential trains in Munc13-1 deficient, Munc13-2 dependent neurons; format: cell-based, mouse; conditions: 1 μM PDBU; Munc13-2 dependent cells
[6] = tested on: PKCs; format: cell-based, mouse
[7] = tested on: hippocampal neurons; experiment: Readily releasable vesicle pool size by hypertonic sucrose application; format: cell-based, mouse; conditions: in response to PDBU
Protocol: as §1, with “7.3).” for “7.3). Wild type and Munc13-1 deficient glutamatergic hippocampal neurons were used to study the characteristics of Munc13-1 and Munc13-1 independent synapses.”
Synaptic depression in wild type neurons has been interpreted as depletion of the readily releasable pool of vesicles because pool sizes and synaptic responses are reduced in parallel during high frequency stimulation. […]

[8] = 1 μM PDBU, Munc13-1^H567K/Munc13-1^H567K neurons
[9] = Munc13-1 dominated wild type synapses
[10] = after 1 μM PDBU, wildtype neurons

In the case of `C[C@]12N[C@H](Cc3ccccc31)c1ccccc12` [MK-801], the “synaptic NMDA receptors activated and blocked during synaptic activity” value ([1]; Munc13-1 deficient cells) is listed as 20%, the “cellular NMDA receptors activated and blocked during synaptic activity” value ([1]; wild type cells) is listed as 75% and the “reduction of the NMDA EPSC component” value [2] is listed as “more than 90%”.
In the case of `CCCC(=O)O[C@@H]1[C@@H](C)[C@@]2(O)[C@@H](C=C(CO)C[C@]3(O)C(=O)C(C)=C[C@@H]23)[C@@H]2C(C)(C)[C@]12OC(=O)CCC` [PDBU], the mEPSC frequency ([3]; Munc13-1^H567K/Munc13-1^H567K cells) is reported as 127±16 % of control levels, the mEPSC frequency ([3]; wildtype neurons) is reported as 239±34 % of control levels and the “β-PE induced increase in evoked EPSCs” value ([4]; 1 μM PDBU alone, wild type neurons (GÖ 6983 experiment)) is reported as 160±9 % of baseline values. The “increase of evoked EPSC amplitudes over baseline value” ([4]; 1 μM PDBU for 1 min, wild type neurons, before bisindolylmaleimide I) was 90±19%, the “evoked EPSC amplitudes” value ([4]; 1 μM PDBU for one minute, wildtype neurons) was 191±17 % of baseline values and the “evoked EPSCs” value ([4]; 1 μM PDBU, Munc13-1/Munc13-2 double deficient cells overexpressing Munc13-1^H567K) was 108±5 % of control levels. For the same compound, the “evoked EPSCs” value ([4]; 1 μM PDBU, Munc13-1/Munc13-2 double deficient neurons overexpressing wild type Munc13-1) was 246±22 % of control levels, the “evoked EPSC amplitudes” value [4, 8] was 131±7 % of baseline values and the “time constant of increase in evoked EPSC amplitudes” value [4, 8] was 16 s. For the same compound, the “time constant of enhancement of evoked EPSC amplitudes” value ([4]; 1 μM PDBU, wildtype neurons) was 8 s, the “phorbol ester induced potentiation of evoked responses” value ([4]; PDBU 1 μM, rescue with C1-DAG binding mutant ubMunc13-2(H491K)) was 1.04±0.03 and the “phorbol ester induced potentiation of evoked responses” value ([4]; PDBU 1 μM, rescue with Calmodulin binding deficient mutant ubMunc13-2(W387R)) was 2.9±0.4 fold. For the same compound, the “β-phorbol ester induced EPSC potentiation (synaptic potentiation)” value ([4]; Munc13-1 deficient, Munc13-2 dependent synapses) was 570±118%, the “β-phorbol ester induced EPSC potentiation (synaptic potentiation)” value [4, 9] was 199±25% and the “phorbol ester induced potentiation of evoked responses” value ([4]; PDBU at 1 μM for 1 minute, double deficient neurons rescued with wildtype ubMunc13-2) was 3.9±1.1 fold. For the same compound, the EPSC potentiation ([4]; Munc13-1/Munc13-2 double deficient neurons rescued with Munc13-1) was 247±22%, the EPSC potentiation ([4]; Munc13-1/Munc13-2 double deficient neurons rescued with ubMunc13-2) was 510±83% and the “time constant of return to baseline after removal” value [4, 10] was 27 s. For the same compound, the “time for synaptic amplitude to return to baseline after removal” value [4, 10] was 3 to 4 min, the “β-Phorbol ester induced potentiation of IPSCs” value ([4]; compared with EPSCs, wild type and Munc13-1 deficient neurons) was “much less pronounced” and the phorbol ester response ([4]; rescue with ubMunc13-2 deletion construct lacking the first 400 amino acids) was 4.5±1.3 fold increase. For the same compound, the “additivity of β-phorbol ester induced potentiation and train induced augmentation” value [5] was “not additive”, the “phosphorylation of Munc13-1” value [6] was “weakly phosphorylated in a constitutive, β-PE independent manner” and the “phosphorylation of SNAP-25 and GAP-43” value [6] was “strongly phosphorylated”. For the same compound, the “increase of readily releasable vesicle pool” value [7, 9] was 11±5% and the “increase of readily releasable vesicle pool” value ([7]; Munc13-2 dependent synapses) was 30±15%.
